“Also recorded” adds a separate entry of the source. Ends that are not written are not given here. * marks the point of attachment. FITC = O=C1OC2(c3ccc(O)cc3Oc3cc(O)ccc32)c2ccc(NC(=S)*)cc21
What was measured:
[1] = system: K14-HPV16/E2 cervical lesions; experiment: Distribution of fluorescent peptides in K14-HPV16/E2 mice with cervical lesions; format: in vivo, mouse; details: for fluorescent peptide in normal cervix and control tissues: 100 μg i.v., 2 hrs; for fluorescent peptide in K14-HPV16/E2 cervical lesions/tumors (in words): labeled peptide i.v.
Method: The frozen sections were prepared for immunohistological analysis.

C8161 xenografts = experiment: In vivo phage homing to C8161 xenograft tumors; design: species or system mouse; details: i.v. injected phage, C8161 xenograft mice
Method: (§1) The following cell lines were maintained in DMEM supplemented with 10% FCS: C8161 human melanoma, MDA-MB-435 human breast cancer, KRIB human osteosarcoma, and human prostate cancer cells PPC1, DU145. LNCaP human prostate cancer cell line was grown in RPMI 1640 medium with 10 mM HEPES, 1 mM sodium pyruvate and 1.5 g/L sodium bicarbonate supplemented with 10% FCS. M12 human prostate cancer cell line was cultured in RPMI 1640 with 5 μg/ml insulin-transferrin-sodium selenite (ITS), 2.5 μg/ml fungizone, 50 μg/ml gentamycin, 0.2 μM dexamethasone, 10 ng/ml epidermal growth factor (EGF), and 5% FCS (Bae et al., 1998). To produce tumors, nude BALB/c and C56BL/6 mice were subcutaneously (C8161, KRIB, and PPC1) or orthotopically ([…], PPC1, DU145, M12, and LNCaP) injected with 1×10^6 tumor cells. Transgenic mouse tumor models included TRAMP prostate cancer, MMTV-PyMT breast cancer, and K14-HPV16 cervical cancer. To initiate cervical carcinogenesis, female K14-HPV16 mice (Arbeit et al., 1994) were treated with 17β-estradiol (E2; (Arbeit et al., 1996; Giraudo et al., 2004). Briefly, one-month-old virgin female transgenic (heterozygous K14-HPV16, 1203#1) and nontransgenic (FVB/n) mice were anesthetized with isoflurane, and continuous release pellets that deliver E2 at doses of 0.05 mg over 60 days (Innovative Research of America, Sarasota, Fla., USA) were implanted subcutaneously in the dorsal back skin. Subsequent pellets were implanted at 3 and 5 months of age for a total of 6 months of hormone treatment. K14-HPV16 mice were maintained in the FVB/n background (FVB/n; The Jackson Laboratory). The mice were maintained in accordance with the University of California, San Francisco (UCSF) institutional guidelines governing the care of laboratory mice. The animal experimentation was approved by Animal Research Committees at UCSF or The Burnham Institute.
(§2) In vivo homing specificity of phage was tested as described (Hoffman, 2004). Briefly, mice bearing tumors were anesthetized and intravenously injected with 5×10^9 pfu of phage. After 7 min, the mice were perfused through the heart with PBS containing 0.5% BSA. The tumor and control organs were dissected from each mouse and the phage were rescued and tittered. For histology analysis, the mice were perfused with 4% PFA 30 min after the injection of phage. Tissues were embedded in Tissue-Tek O.C.T. and 5 μm sections were prepared for phage immunostaining.

[2] = system: cell suspensions prepared from C8161 tumors; experiment: Phage binding to cell suspensions prepared from C8161 tumors; format: cell-based, mouse; details: phage clone, ex vivo
[3] = system: cell suspension derived from pre-malignant prostate lesions; experiment: Phage binding to cell suspension derived from pre-malignant prostate lesions; format: cell-based, mouse; details: phage clones
Method: (§3) An NNK-encoded CX7C library display on T7Select415-1 phage (Novagen) was prepared as previously described (Laakkonen et al., 2002). Phage selection and validation have been described (Hoffman, 2004). A two-step procedure was designed for the selection of peptides targeting the tumor lymphatic vessels of pre-malignant prostate lesions and prostate tumor. First, the phage library was incubated with cells derived from normal prostate to subtract the phage that bind to normal prostate. Second, the anti-podoplanin magnetic beads were used to isolate lymphatic endothelial cells. 2-3 rounds of ex vivo selection and 2-3 rounds of in vivo selections were performed. For the ex vivo selections, cell suspensions were prepared from normal prostates of tumor-free littermates of TRAMP mice, pre-malignant prostates of 14- to 16-week-old TRAMP mice, and tumor tissues of 25- to 28-week-old TRAMP mice. Collagenase IA (1 mg/ml, Sigma) was used to disperse the tissues. About 1×10^7 normal prostate cells were incubated at 4° C. for 3 hrs with […] plaque forming units (pfu) of T7 phage displaying a CX7C peptide library. The samples were centrifuged at 1200 rpm for 10 min, the supernatant (the normal prostate-subtracted phage library) was recovered and then incubated overnight at 4° C. with 5×10^7 cells derived from pre-malignant prostate tissue or prostate tumor. The cells were washed to remove unbound phage, incubated with rat anti-mouse podoplanin for 45 min at 4° C., and washed three times with cold PBS containing 0.5% BSA. Podoplanin-positive cells were then isolated using M450 sheep anti-rat IgG Dynabeads (M450; Dynal, Oslo, Norway). Phage that bound to the podoplanin-positive cell population were rescued and amplified in E. coli. In vivo phage library screening was performed as described (Laakkonen et al., 2002).

TRAMP PIN lesions = experiment: In vivo phage homing to TRAMP pre-malignant (PIN) lesions; design: species or system mouse; details: phage clones tested in vivo individually
Method: as §1, §2

[4] = system: K14-HPV16/E2 cervical dysplasia; experiment: In vivo phage homing to K14-HPV16/E2 cervical dysplasia (CIN-3); design: species or system mouse; details: for phage homing to K14-HPV16/E2 pre-malignant cervical lesions (in words): i.v. injected phage
Method: as §1, §2

[5] = system: K14-HPV16/E2 cervical tumors; experiment: In vivo phage homing to K14-HPV16/E2 cervical tumors; design: species or system mouse; details: for phage homing to K14-HPV16/E2 cervical tumors (in words): i.v. injected phage
Method: as §1, §2

K14-HPV16 skin cancer = experiment: In vivo homing to K14-HPV16 skin cancer; design: species or system mouse; details: i.v. injection, K14-HPV16 mice
Method: as §1, §2

normal tissues = experiment: In vivo phage homing to normal and control tissues; design: species or system mouse; details: i.v. injected phage
Method: as §2

[6] = system: MDA-MB-435 orthotopic xenografts; experiment: In vivo phage homing to MDA-MB-435 orthotopic xenografts; design: species or system mouse; details: for phage homing to MDA-MB-435 tumors (in words): i.v. injected phage
Method: as §1, §2

CXCR4 = target: T1, CXCR4 (Homo sapiens, UniProt P61073); experiment: Phage binding to CXCR4-transfected 293T cells; details: 293T cells
T1 construct: expressed in transfected cells; host or cells: 293T cells, transient transfection with FuGene 6
T1 sequence (P61073 whole entry, species assumed): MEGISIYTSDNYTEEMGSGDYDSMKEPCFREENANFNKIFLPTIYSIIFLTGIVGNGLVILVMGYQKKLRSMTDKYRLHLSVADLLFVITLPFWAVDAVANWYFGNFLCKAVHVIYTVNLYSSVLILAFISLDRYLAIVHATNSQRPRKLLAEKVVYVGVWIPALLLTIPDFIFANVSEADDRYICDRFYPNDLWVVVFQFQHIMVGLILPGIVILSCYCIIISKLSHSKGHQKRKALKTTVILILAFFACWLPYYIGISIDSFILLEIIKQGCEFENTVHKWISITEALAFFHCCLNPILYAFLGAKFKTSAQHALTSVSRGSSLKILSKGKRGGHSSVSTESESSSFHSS
Method: (§4) The 293T cells were transfected with plasmids encoding CXCR4 (Helbig et al., 2003) or VEGFR2 (Borges et al., 2000) using FuGene 6 transfection reagent (Roche Diagnostics, Indianapolis, Ind.). Briefly, plasmid (10 μg) was mixed with 900 μl of serumfree DMEM and 50 μl of FuGene and incubated for 15 min at room temperature before adding the mixture to the cells. The cells were detached using EDTA after 48 hrs post transfection and washed with PBS containing 1% BSA. Phage (5×10^9 pfu) were incubated with the transfected cells and bound phage were rescued and titrated. For competitive binding assay, the cognate peptide (150 μg/ml) or antibody (50 μg/ml) was added during incubating of the phage with cells. Targeted proapoptotic peptide treatment of tumor-bearing mice Prostate cancer model. Orthotopic xenografted prostate tumors were established by injecting 1×10^6 PPC1 human prostate cancer cells into the mouse prostate. Fifteen days post inoculation, the mice were intravenously injected with D(KLAKLAK)2-CREAGRKAC (SEQ ID NO:41), an equimolar mixture of D(KLAKLAK)2 (SEQ ID NO:19) and CREAGRKAC (SEQ ID NO:6), or PBS. Biweekly injections of 100 μg/dose/mouse were given for three weeks. Melanoma model. Nude BALB/c mice were subcutaneously injected with 1×10^6 C8161 human melanoma cells. Treatment started when mean tumor volumes reached about 100 mm3. Mice with size-matched tumors were randomized into three groups. The therapeutic group received a chimera of tumor homing peptide with the proapoptotic motif (D(KLAKLAK)2-CLSDCGKRKC; SEQ ID NO:42). The control groups received an equimolar mixture of CLSDGKRKC (SEQ ID NO:4) and D(KLAKLAK)2 (SEQ ID NO:19), or PBS alone. The tumor-bearing mice were intravenously injected with 200 μg/dose/mouse once a week for three weeks. The mice were monitored for weight loss, and tumors were dissected and weighed at the termination of the experiment. Histological analysis was performed to evaluate the density of tumor lymphatics and blood vessels. The animal experiments reported here were approved by The Burnham Institute Animal Research Committee.

[7] = system: PPC1 orthotopic xenografts; experiment: Targeted proapoptotic peptide treatment of mice with PPC1 orthotopic xenografts; format: in vivo; details: 100 μg/dose/mouse biweekly i.v., three weeks
Method: as §4

TRAMP prostate tumors = experiment: In vivo phage homing to TRAMP prostate tumors; design: species or system mouse; details: i.v. injected phage clone
Method: as §1, §2

[8] = system: tumor derived cell suspensions (TRAMP); experiment: Phage binding to TRAMP tumor derived cell suspensions; format: cell-based, mouse; details: phage clones
Method: as §3

[9] = listed as Fluoresceinlabeled LyP-2 peptide
[10] = phage homing in vivo, K14-HPV16/E2 cervical dysplasia
[11] = phage homing in vivo, K14-HPV16/E2 cervical cancer / cervical tumors
[12] = phage homing in vivo, MDA-MB-435 orthotopic xenografts

## FITC-LyP-2: fluorescein-labeled LyP-2 peptide (CNRRTKAGC) ({FITC}-CNRRTKAGC; cysteine pairing not given here)
[1]
  fluorescent peptide in normal cervix and control tissues: Little or no fluorescence
[1]; [9]
  fluorescent peptide in normal cervix and control tissues: No peptide accumulation was observed
  fluorescent peptide in K14-HPV16/E2 cervical lesions/tumors (in words): accumulated in the cervical lesions
[1]; fluorescein-labeled peptide
  overlap with podoplanin in cervical lesions: 82%
[1]; fluorescein-labeled peptide, cervical lesions
  co-localization with MECA-32: not with MECA-32
[1]; listed as fluorescein labeled-LyP-2 peptide
  fluorescent peptide in K14-HPV16/E2 cervical lesions/tumors (in words): homes to cervical carcinoma

## CLDGGRPKC
C8161 xenografts
  phage homing to C8161 tumors (in words): homed selectively to the tumors
[2]
  binding to cell suspensions prepared from C8161 tumors (in words): bound to cell suspensions prepared from C8161 tumors

## CSGGKVLDC
[3]
  binding to cell suspension from pre-malignant prostate lesions (in words): bound
TRAMP PIN lesions
  enrichment to pre-malignant TRAMP lesions relative to nonrecombinant phage: 14 fold

## CNRRTKAGC [LyP-2, homing peptide from K14-HPV16 dysplastic skin lesions; homes to cervical lesion lymphatics]
[4]
  phage homing to K14-HPV16/E2 pre-malignant cervical lesions (in words): homes to the cervical cancers and pre-malignant lesions
[4]; listed as LyP-2 phage
  phage homing to K14-HPV16/E2 pre-malignant cervical lesions (in words): Significantly more; also recorded: robust homing
[4]; [10]
  Fold over control phage: 17 fold
  Specific Homing: Yes
[5]
  phage homing to K14-HPV16/E2 cervical tumors (in words): homes to the cervical cancers and pre-malignant lesions
[5]; listed as LyP-2 phage
  phage homing to K14-HPV16/E2 cervical tumors (in words): Significantly more; also recorded: robust homing
[5]; [11]
  Fold over control phage: 22 fold
  Specific Homing: Yes
K14-HPV16 skin cancer
  homing to K14-HPV16 skin cancers (in words): homed to the lymphatics associated with dysplasias and squamous cell carcinomas in the skin; also recorded: homed to the K14-HPV16 skin cancer lymphatics
Normal tissues
  phage homing to normal breast tissue: Neither phage homed
  phage homing to normal cervix: Neither phage homed
Normal tissues; listed as LyP-2 phage
  phage homing to normal cervix: not to normal cervix
[6]; [12]
  Fold over control phage: 3 fold
  Specific Homing: No

## CGNKRTRGC [LyP-1, previously described lymphatic homing peptide recognizing breast cancer lymphatics and tumor cells, reference compound]
[5]
  phage homing to K14-HPV16/E2 cervical tumors (in words): not to the cervical tumors
K14-HPV16 skin cancer
  homing to K14-HPV16 skin cancers (in words): homed to the K14-HPV16 skin cancer lymphatics
CXCR4
  phage binding to CXCR4-transfected 293T cells (in words): did not bind
Normal tissues
  phage homing to normal breast tissue: Neither phage homed
  phage homing to normal cervix: Neither phage homed
[6]
  phage homing to MDA-MB-435 tumors (in words): homes to the MDA-MB-435 tumors
[6]; listed as LyP-1 phage
  phage homing to MDA-MB-435 tumors (in words): homed to MDA-MB-435 tumors

## D(KLAKLAK)2-CREAGRKAC (KLAKLAKKLAKLAKCREAGRKAC) [chimera of REA homing peptide with the pro-apoptotic motif D(KLAKLAK)2]
[7]
  number of tumor lymphatics (podoplanin staining): greatly reduced
  tumor blood vessel count/density (MECA-32 staining): unaffected
  tumor volume / tumor growth: unaffected
[7]; listed as REA conjugate
  number of tumor lymphatics (podoplanin staining): reduced the number of tumor lymphatics
  tumor blood vessel count/density (MECA-32 staining): no effect
  tumor volume / tumor growth: no effect

## CKTRVSCGV
TRAMP prostate tumors
  enrichment in TRAMP tumors relative to nonrecombinant phage: about 30 fold
[8]
  binding to TRAMP tumor derived cell suspensions (in words): robust binding

## CASLSCR
[3]
  binding to cell suspension from pre-malignant prostate lesions (in words): bound
TRAMP PIN lesions
  enrichment to pre-malignant TRAMP lesions relative to nonrecombinant phage: 12 fold

## CSMSAKKKC
TRAMP prostate tumors
  enrichment in TRAMP tumors relative to nonrecombinant phage: about 30 fold
[8]
  binding to TRAMP tumor derived cell suspensions (in words): robust binding
